Test [1] deals with hGYS1 enzyme / glycogen synthesis in HeLa cells. As to the kind of experiment: GYS1 cell based assay (glycogen synthesis, Glucose-glo). Details: species or system human. The note with it: 24 h incubation, 20 mM glucose, geometric mean of at least 2 runs. From the text:
The GYS1 cell based assay is a bioluminescent assay that quantifies the glucose resulting from glycogen digestion; the quantified glucose is an indirect measure of GYS1 glycogen synthesis. Newly synthesized glycogen is digested using Glucoamylase; the resulting glucose is quantified by using the Glucose-glo assay kit from Promega. Glucose-glo works by coupling glucose oxidation and NADH production with a bioluminescent system that is activated with NADH. Glucose is oxidized by Glucose dehydrogenase and the reaction reduces NAD+ to NADH; NADH activates Reductase which reduces a pro-luciferin Reductase Substrate to luciferin. Luciferin is detected in a luciferase reaction using Ultra-Glo rLuciferase and ATP, and the luminesce produced is proportional to the glucose in the sample. The luminescence is measured as a single point read in a plate reader.
Compounds that inhibit the hGYS1 enzyme and, subsequently, the glycogen synthesis in cells, were tested using assay ready plates (white, clear bottom 384 well plates) in a final DMSO reaction volume of 1% DMSO. Compounds in the assay ready plates were mixed with media with no additives, except for 20 mM glucose prior to cell addition. HeLa cells were starved in media with no additives, except for 1× Glutamax for 24 h. Starved HeLa cells were plated, in a 1:1 ratio to the media in the assay ready plate and incubated for 24 h at 37° C. and 5% C02. Cells were washed in 1×PBS buffer and lysed in lysis buffer containing 50% 1×PBS and 25% 0.3 N HCl of the final volume in the well or reaction volume; cells were incubated with lysis buffer for 10 minutes and quenched with the remaining 25% of the reaction volume that consisted of 450 mM Tris pH 8.0. Lysates were mixed in a 1:1 ratio with Glucoamylase in 100 mM Sodium Acetate buffer, pH 5.3; the mixture was incubated for 1 h at 37° C. The digested lysate was mixed in a 1:1 ratio with Glucose-glo detection mixture as per vendor recommendations (Luciferase detection buffer, Reductase, Reductase substrate, Glucose dehydrogenase, and NAD) in read-out plates (solid white 384-well plates) and incubated for 1 h at RT. The plates were read using a plate reader with luminescence capabilities. Each compound concentration Relative Luminescence Unit (RLU) was averaged and normalized to the average RLU of the positive and negative controls to obtain a percentage inhibition. The normalized data vs. concentration was plotted; to determine the half-maximal concentration (IC50), the Levenberg-Marquardt algorithm was used to fit a Hill equation to the dose response data.
The results are shown in Table 3 below, which reports the IC50 of each compound. Unless otherwise specified, IC50 values are reported as the geometric mean of at least 2 assay runs on separate days. As shown in the table below, the compounds of the present invention are potent inhibitors of human GYS1. Unless otherwise specified, IC50 values are reported as the geometric mean of at least two assay runs on separate days. Each run represents the average of a technical replicate, where each compound was assayed twice in the same plate. A superscript “#” symbol in Table 3 indicates results from a single assay run.

The target of test [2] is hGYS1 enzyme (recombinant hGYS1/GN1 protein) (Homo sapiens (Human), UniProt P13807). As to the kind of experiment: GYS1 coupled enzyme assay (PK/LDH). It counts as biochemical. The note with it: hGYS1/GN1 50 nM, UDP-Glucose 0.8 mM, G6P 1 mM; geometric mean of at least 2 runs.
hGYS1 enzyme (recombinant hGYS1/GN1 protein), sequence (P13807 whole entry): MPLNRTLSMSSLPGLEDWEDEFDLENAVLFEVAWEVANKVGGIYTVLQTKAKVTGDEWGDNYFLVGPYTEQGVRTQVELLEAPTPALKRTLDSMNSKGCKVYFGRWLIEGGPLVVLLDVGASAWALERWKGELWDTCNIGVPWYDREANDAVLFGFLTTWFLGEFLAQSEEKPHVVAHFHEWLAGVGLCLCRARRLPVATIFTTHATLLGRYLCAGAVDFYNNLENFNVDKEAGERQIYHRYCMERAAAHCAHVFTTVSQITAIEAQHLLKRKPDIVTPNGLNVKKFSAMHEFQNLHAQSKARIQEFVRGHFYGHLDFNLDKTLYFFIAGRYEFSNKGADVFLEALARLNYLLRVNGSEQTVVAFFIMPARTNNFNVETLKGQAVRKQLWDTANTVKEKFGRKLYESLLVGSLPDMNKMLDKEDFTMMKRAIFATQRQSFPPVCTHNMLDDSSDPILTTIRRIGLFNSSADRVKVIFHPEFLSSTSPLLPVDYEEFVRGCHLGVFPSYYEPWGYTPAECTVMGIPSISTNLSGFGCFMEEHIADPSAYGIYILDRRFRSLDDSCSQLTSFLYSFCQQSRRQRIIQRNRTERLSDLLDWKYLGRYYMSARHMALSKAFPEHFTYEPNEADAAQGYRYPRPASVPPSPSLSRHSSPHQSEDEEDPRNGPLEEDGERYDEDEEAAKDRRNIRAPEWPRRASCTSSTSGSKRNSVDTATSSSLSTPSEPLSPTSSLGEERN
hGYS1 enzyme (recombinant hGYS1/GN1 protein), sequence (P46976 whole entry partner): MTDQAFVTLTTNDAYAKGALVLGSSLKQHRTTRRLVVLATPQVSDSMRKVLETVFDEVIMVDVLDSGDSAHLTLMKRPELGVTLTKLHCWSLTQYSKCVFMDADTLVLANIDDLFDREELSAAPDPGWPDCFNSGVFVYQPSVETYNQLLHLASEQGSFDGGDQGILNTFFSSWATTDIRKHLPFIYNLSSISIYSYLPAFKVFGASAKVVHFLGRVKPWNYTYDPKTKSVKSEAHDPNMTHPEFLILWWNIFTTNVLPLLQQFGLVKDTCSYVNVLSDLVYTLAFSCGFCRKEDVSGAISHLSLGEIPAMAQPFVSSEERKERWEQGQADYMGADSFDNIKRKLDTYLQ

One may read the IC50 as the concentration that inhibits the measured activity by half. As for “(2S,4R)-4-fluoro- N-[(S) or (R)-[6- fluoro-5-(propan- 2-yl)pyridin-2- yl][3-(1,2-oxazol-5- yl)phenyl]methyl]- 1-[2-(1H-1,2,3- triazol-5- yl)acetyl]pyrrolidine- 2-carboxamide [Compound 694]”, the IC50 in test [1] worked out at 1210 nM; in test [2] it was 34 nM. The molecule `COc1nc(CC(=O)N2C[C@H](F)C[C@H]2C(=O)N[C@@H](c2ccccc2)c2ccc(C(C)C)c(F)n2)nn1C` [Compound 800, (2S,4R)-4-fluoro-N-[(S)-[6-fluoro-5-(propan-2-yl)pyridin-2-yl](phenyl)methyl]-1-[2-(5-methoxy-1-methyl-1H-1,2,4-triazol-3-yl)acetyl] pyrrolidine-2-carboxamide] yielded an IC50 in test [1] (Homo sapiens, HeLa, 24 h) of 180 nM. Consider `O=C(N[C@@H](c1ccccc1)c1ccc(C2CC(F)(F)C2)c(F)c1)[C@@H]1C[C@@H](F)CN1C(=O)Cc1nc(C(F)(F)F)co1` [Compound 555, (2S,4R)-N-[(S)-[4-(3,3-difluorocyclobutyl)-3-fluorophenyl](phenyl)methyl]-4-fluoro-1-{2-[4-(trifluoromethyl)-1,3-oxazol-2-yl]acetyl}pyrrolidine-2-carboxamide], for which the IC50 worked out at 660 nM in test [1] (Homo sapiens, HeLa, 24 h) and 97 nM in test [2]. The matching figures for `O=C(N[C@@H](c1ccccc1)c1ccc(C2CC(F)(F)C2)cn1)[C@@H]1C[C@@H](F)CN1C(=O)Cc1nc(C(F)(F)F)co1` [Compound 543, (2S,4R)-N-[(S)-[5-(3,3-difluorocyclobutyl)pyridin-2-yl](phenyl)methyl]-4-fluoro-1-{2-[4-(trifluoromethyl)-1,3-oxazol-2-yl]acetyl}pyrrolidine-2-carboxamide]: 610 nM and 49 nM. Regarding `O=C(N[C@@H](c1ccccc1)c1ccc(C2CC2)c(F)c1)[C@@H]1C[C@@H](F)CN1C(=O)CN1CCOCC1=O` [Compound 423, (2S,4R)-N-[(S)-(4-cyclopropyl-3-fluorophenyl)(phenyl)methyl]-4-fluoro-1-[2-(3-oxomorpholin-4-yl)acetyl]pyrrolidine-2-carboxamide], the IC50 in test [1] (Homo sapiens, HeLa, 24 h) is greater than 9260 nM; in test [2], 350 nM. Turning to `CC(=O)N1C[C@H](F)C[C@H]1C(=O)NC(c1cccc(-c2cc(C)nn2C)c1)c1ccc(C(C)C)c(F)n1` (single isomer, unassigned) [Compound 697, (2S,4R)-1-acetyl-N-[(S) or (R)-[3-(1,3-dimethyl-1H-pyrazol-5-yl)phenyl][6-fluoro-5-(propan-2-yl)pyridin-2-yl]methyl]-4-fluoropyrrolidine-2-carboxamide], inhibition in test [1] (Homo sapiens, HeLa, 24 h) was half-maximal at 9200 nM (IC50). Take `Cn1c(=O)[nH]c2c(C(NC(=O)[C@@H]3C[C@@H](F)CN3C(=O)Cc3cnn[nH]3)c3ccc(C4CC4)c(F)c3)cccc21` (single isomer, unassigned) [Compound 650, (2S,4R)-N-[(R) or (S)-(4-cyclopropyl-3-fluorophenyl)(1-methyl-2-oxo-2,3-dihydro-1H-1,3-benzodiazol-4-yl)methyl]-4-fluoro-1-[2-(1H-1,2,3-triazol-5-yl)acetyl]pyrrolidine-2-carboxamide]: the IC50 is greater than 10000 nM in test [1] (Homo sapiens, HeLa, 24 h) and 1440 nM in test [2]. On to `CC(C)c1ccc([C@@H](NC(=O)[C@@H]2C[C@@H](F)CN2C(=O)Cn2cc(N3CCC3)nn2)c2ccccc2)nc1F` [Compound 787, (2S,4R)-1-{2-[4-(azetidin-1-yl)-1H-1,2,3-triazol-1-yl]acetyl}-4-fluoro-N-[(S)-[6-fluoro-5-(propan-2-yl)pyridin-2-yl](phenyl)methyl] pyrrolidine-2-carboxamide], for which half-maximal inhibition in test [1] (Homo sapiens, HeLa, 24 h) (IC50) required 130 nM. For the molecule `O=C(N[C@@H](c1ccccc1)c1ccc(C2CC2)c(F)n1)[C@@H]1C[C@@H](F)CN1C(=O)Cn1ccc(C(F)(F)F)n1` [Compound 730, (2S,4R)-N-[(S)-(5-cyclopropyl-6-fluoropyridin-2-yl)(phenyl)methyl]-4-fluoro-1-{2-[3-(trifluoromethyl)-1H-pyrazol-1-yl]acetyl}pyrrolidine-2-carboxamide], the IC50 amounted to 760 nM in test [1] (Homo sapiens, HeLa, 24 h) and 37 nM in test [2]. `O=C(N[C@@H](c1ccccc1)c1ccc(C2CC2)c(F)n1)[C@@H]1C[C@@H](F)CN1C(=O)Cn1nncc1N1CC(F)(F)C1` [Compound 758, (2S,4R)-N-[(S)-(5-cyclopropyl-6-fluoropyridin-2-yl)(phenyl)methyl]-1-{2-[5-(3,3-difluoroazetidin-1-yl)-1H-1,2,3-triazol-1-yl]acetyl}-4-fluoropyrrolidine-2-carboxamide]: the 50% inhibitory concentration (IC50) in test [1] (Homo sapiens, HeLa, 24 h) was found to be 1160 nM; in test [2], 32 nM. `CC(C)c1ccc([C@@H](NC(=O)[C@@H]2C[C@@H](F)CN2C(=O)Cc2noc(=O)n2C)c2ccccc2)nc1` [Compound 267, (2S,4R)-4-fluoro-1-[2-(4-methyl-5-oxo-4,5-dihydro-1,2,4-oxadiazol-3-yl)acetyl]-N-[(S)-phenyl[5-(propan-2-yl)pyridin-2-yl]methyl]pyrrolidine-2-carboxamide]: the half-maximal inhibitory concentration (IC50) in test [1] (Homo sapiens, HeLa, 24 h) was determined as 4300 nM; in test [2], 464 nM. The matching figures for `CCn1cc(CC(=O)N2C[C@H](F)C[C@H]2C(=O)N[C@@H](c2ccccc2)c2ccc(C3CC3)c(F)n2)ncc1=O` [Compound 742, (2S,4R)-N-[(S)-(5-cyclopropyl-6-fluoropyridin-2-yl)(phenyl)methyl]-1-[2-(4-ethyl-5-oxo-4,5-dihydropyrazin-2-yl)acetyl]-4-fluoropyrrolidine-2-carboxamide]: 630 nM and 24 nM. `O=C(N[C@@H](c1ccccc1)c1ccc(C2CC2)c(F)n1)[C@@H]1C[C@@H](F)CN1C(=O)CNC(=O)N1CCC1` [Compound 305, (2S,4R)-1-{2-[(azetidine-1-carbonyl)amino]acetyl}-N-[(S)-(5-cyclopropyl-6-fluoropyridin-2-yl)(phenyl)methyl]-4-fluoropyrrolidine-2-carboxamide] had an IC50 in test [1] (Homo sapiens, HeLa, 24 h) of 630 nM. For the molecule `NC(=O)NCC(=O)N1C[C@H](F)C[C@H]1C(=O)N[C@@H](c1ccccc1)c1ccc(C2CC2)c(F)n1` [Compound 302, (2S,4R)-1-[2-(carbamoylamino)acetyl]-N-[(S)-(5-cyclopropyl-6-fluoropyridin-2-yl)(phenyl)methyl]-4-fluoropyrrolidine-2-carboxamide], in test [1] (Homo sapiens, HeLa, 24 h), the IC50 stood at 1230 nM. On to `COc1cccc(C(NC(=O)[C@@H]2C[C@@H](F)CN2C(C)=O)c2ccc(C(C)C)c(F)n2)c1` (single isomer, unassigned) [Compound 654, (2S,4R)-1-acetyl-4-fluoro-N-[(S) or (R)-[6-fluoro-5-(propan-2-yl)pyridin-2-yl](3-methoxyphenyl)methyl]pyrrolidine-2-carboxamide], for which the IC50 in test [1] (Homo sapiens, HeLa, 24 h) was determined as 3290 nM. `CC(C)c1ccc([C@@H](NC(=O)[C@@H]2C[C@@H](F)CN2C(=O)CNC(=O)N(C)C)c2ccccc2)cc1F` [Compound 361, (2S,4R)-1-{2-[(dimethylcarbamoyl)amino]acetyl}-4-fluoro-N-[(S)-[3-fluoro-4-(propan-2-yl)phenyl](phenyl)methyl] pyrrolidine-2-carboxamide] displayed an IC50 in test [1] (Homo sapiens, HeLa, 24 h) of 210 nM. On the same count and under the same terms, as for `CC(C)c1ccc([C@@H](NC(=O)[C@@H]2C[C@@H](F)CN2C(=O)Cc2nc(C(F)(F)F)co2)c2ccccc2)nc1F` [Compound 801, (2S,4R)-4-fluoro-N-[(S)-[6-fluoro-5-(propan-2-yl)pyridin-2-yl](phenyl)methyl]-1-{2-[4-(trifluoromethyl)-1,3-oxazol-2-yl]acetyl} pyrrolidine-2-carboxamide], the figure is 380 nM; as for `O=C(N[C@H](c1ccccc1)c1ccc(C2CC2)c(F)n1)[C@@H]1C[C@@H](F)CN1C(=O)Cn1cnc2ccccc21` [Compound 716, (2S,4R)-1-[2-(1H-1,3-benzodiazol-1-yl)acetyl]-N-[(R)-(5-cyclopropyl-6-fluoropyridin-2-yl)(phenyl)methyl]-4-fluoropyrrolidine-2-carboxamide], 22300 nM.
